Data on three compounds can be found in patent US20130337564A1, “Treatment of Pluripotent Cells” (Janssen Biotech, Inc., priority 2012, published 2013).

The structures appear in SMILES notation.

Format in all cases: cell-based
The test system of assay [1] is human embryonic stem cells (H9 line). The experiment in a line: High content screening assay: cell number (proliferative response). In outline:
(§1)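 H9 hESCs on MATRIGEL treated days 1-2 with 10 μM compound in DMEM:F12, 0.5% FCS, 100 ng/ml activin A; days 3-4 with 2% FCS plus activin A without compound. Fixed cells immunostained for Sox17 or HNF-3beta with Draq5 nuclear counterstain. Cell number and staining intensity quantified by high-content imaging, 12 fields/well.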

The subject of assay [2] is cells expressing pluripotency markers derived from human embryonic stem cells. The experiment in a line: MTS viability (toxicity) assay of cells expressing pluripotency markers. Also on record: Raw data (duplicate), first replicate / Average: unit not given here. The settings on record: for viability at 10 µM: Homo sapiens, Embryonic stem cell, viability of cells expressing pluripotency markers, relative to control; for Raw data (duplicate), first replicate / Raw data (duplicate), second replicate: MTS viability assay raw reading; for Raw data (duplicate), first replicate: replicate 1; for Raw data (duplicate), second replicate: replicate 2; for Average: average of duplicate MTS raw readings; for Average of raw data (duplicate), optical density at 490 nm: MTS on day 4. In outline:
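A GSK-3B inhibitor library was screened for toxicity to pluripotency-marker-expressing cells. Compound was given in DMEM:F12 with 0.5% FCS and 100 ng/ml Activin A for two days, then replaced by medium with 2% FCS and Activin A. On day 4, MTS absorbance at 490 nm gave viability as percent of Activin A plus Wnt3a control wells.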
For orientation: Tetrazolium assays rely on reduction of a dye to a coloured formazan, in cell work by metabolically active cells.

Assay [3] has as its system HNF-3beta expression in human embryonic stem cells (H9 line). The experiment in a line: High content screening assay: HNF-3beta protein expression (differentiation). In outline: as §1
Assay [4] deals with Sox17 expression in human embryonic stem cells (H9 line). The experiment in a line: High content screening assay: Sox17 protein expression (differentiation). The method, boiled down:
as §1

[5] abbreviates: cell number in the wells analysed for HNF-3b expression.
The mark [6] stands for this setting: cell number in the wells analysed for SOX-17 expression.

What is called viability is a read-out of living cells in per cent, often relative to untreated cells. Regarding `CN(C)c1cccc(-n2cc(C3=C(c4nn(CCO)c5ccccc45)C(=O)NC3=O)c3ccccc32)c1` [Compound 145, 3-{1-[3-(Dimethylamino)phenyl]-1H-indol-3-yl}-4-[1-(2-hydroxyethyl)-1H-indazol-3-yl]-1H-pyrrole-2,5-dione], the results for the “Proliferative Response Total cells” value in assay [1] (setting [5]) and in assay [1] (setting [6]) were 2907 and 4914, respectively. In addition, in assay [2], the viability at 10 µM came to 105%. Moreover, the “Raw data (duplicate), first replicate” value in assay [2] is 0.831. Besides, the “Raw data (duplicate), second replicate” value in assay [2] worked out at 0.822. In assay [2], this compound returned an Average of 0.826. The “Average of raw data (duplicate), optical density at 490 nm” value (“Average of raw data (duplicate)” for short) in assay [2] (cmpd conc 2.5 μM) is reported as 0.7608; in assay [2] (cmpd conc 5 μM), 0.5871; in assay [2] (cmpd conc 10 μM), 0.1277. In addition, the “HNF-3b Expression Total Intensity” value in assay [3] is reported as 82808745. The “SOX-17 Expression Total Intensity” value in assay [4] worked out at 238555000.

`O=C1NC(=O)C(c2cn(CCOCCOCCNC3CCCc4ccccc43)c3ccccc23)=C1c1cn(CCNC2CCCc3ccccc32)c2ccccc12` (stereo not drawn) [Compound 144, 3-{1-[2-(1,2,3,4-Tetrahydronaphthalen-1-ylamino)ethyl]-1H-indol-3-yl}-4-(1-{2-[(2-{[2-(1,2,3,4-tetrahydronaphthalen-1-ylamino)ethyl]oxy}ethyl)oxy]ethyl}-1H-indol-3-yl)-1H-pyrrole-2,5-dione]: the “Proliferative Response Total cells” value in assay [1] (setting [5]) is listed as 6833. For the same compound, the “Proliferative Response Total cells” value in assay [1] (setting [6]) was 7990. Further, in assay [2], the viability at 10 µM turned out to be 106%; the “Raw data (duplicate), first replicate” value was 0.840; the “Raw data (duplicate), second replicate” value came to 0.832; the Average turned out to be 0.836. In addition, in assay [2] (cmpd conc 2.5 μM), the “Average of raw data (duplicate)” value is 0.2898. For the same compound, the “Average of raw data (duplicate)” value in assay [2] (cmpd conc 5 μM) came out at 0.1473. The “Average of raw data (duplicate)” value in assay [2] (cmpd conc 10 μM) is 0.1464. In addition, the “HNF-3b Expression Total Intensity” value in assay [3] came to 231745000. Also, the “SOX-17 Expression Total Intensity” value in assay [4] is reported as 339840000.

In the case of `O=C1NC(=O)C(c2cn(-c3cncnc3)c3ccccc23)=C1c1cn(CCO)c2ccccc12` [Compound 230, 3-[1-(2-Hydroxyethyl)-1H-indol-3-yl]-4-(1-pyrimidin-5-yl-1H-indol-3-yl)-1H-pyrrole-2,5-dione], the fold induction at 10 µM in assay [1] (Homo sapiens, Embryonic stem cell, 10 μM test compound with 100 ng/ml activin A on days 1-2, H9, total cell number by IN Cell Analyzer, strong and moderate hits, read-out: Proliferative Response, Fold over Wnt 3a/AA control) came out at 1.31. The “Proliferative Response Total cells” value in assay [1] (setting [5]) is 16884. In addition, the “Proliferative Response Total cells” value in assay [1] (setting [6]) was 20079. For the same compound, in assay [2], the viability at 10 µM was 81.8%; the “Raw data (duplicate), first replicate” value is recorded as 0.680; the “Raw data (duplicate), second replicate” value was found to be 0.663; the Average is on record as 0.671. The fold induction at 10 µM in assay [3] (Homo sapiens, Embryonic stem cell, 10 μM test compound with 100 ng/ml activin A on days 1-2, H9, total intensity by IN Cell Analyzer, strong and moderate hits, read-out: HNF3β Expression, Fold over Wnt 3a/AA control) worked out at 0.95. Further, the “HNF-3b Expression Total Intensity” value in assay [3] is 1052345000. The fold induction at 10 µM in assay [4] (Homo sapiens, Embryonic stem cell, 10 μM test compound with 100 ng/ml activin A on days 1-2, H9, total intensity by IN Cell Analyzer, strong and moderate hits, read-out: SOX17 Expression, Fold over Wnt 3a/AA control) is 1.14. Besides, in assay [4], the “SOX-17 Expression Total Intensity” value was 1104750000.
